# According to ChEMBL document CHEMBL3507680, “University of Dundee, Gates Library screen for HepG2 cell viability”:
# Test: Human HepG2 cell viability assay in 384 well format
# Format: toxicity, cell-based
# Set-up: dose 125 nL, time 70.5 hour; cytotoxicity at 70.5 h: concentration not given beside the values
# Conditions: HepG2 cells, read-out: Inhibition
row,Structure (SMILES),cytotoxicity at 70.5 h [%]
1,OCCCN1CCc2onc(C(c3ccccc3)c3ccccc3)c2C1,6.85
2,CC(=O)N1CCC2(C1)c1ccccc1S(=O)(=O)N2C (centres undefined),-7.77
3,CC(=O)Nc1nc2c(s1)C(C)(C)Nc1ccccc1S2,-2.23
4,O=C(O)c1ccc(C2CCCN(Cc3ccc(-c4cc[nH]n4)o3)C2)cc1 (centres undefined),16.9
5,CC(c1cccc(-c2ncccc2C#N)c1)N(C)C (centres undefined),-15.1
6,COc1ccc(CNC(=O)NCc2c(C)cc(C)[nH]c2=O)cc1,-11.9
7,COc1cccc(CN2C[C@@H]3CC[C@@](O)(c4ccccn4)[C@@H]3C2)c1OC,12.8
8,COCCN1CCC(CN(CC2CCCO2)C(=O)CCC(F)(F)F)CC1 (centres undefined),-2.11
9,Cc1cc(NC(=O)CN2CCCC2c2noc(C3CC3)n2)no1 (centres undefined),1.09
10,CCN(C(=O)CN1CCCN(c2nc(C)ns2)CC1)C1CC1,-3.69
11,Cc1ccc(CN2CC3(CCNCC3)CCC2=O)c(F)c1F,-0.751
12,Cc1nc(C)n(CC2CCCN2Cc2nc3ccccc3o2)n1 (centres undefined),-5.98
13,O=C(CCc1ccccc1)NCC1CCN(Cc2cccs2)CC1,-8.06
14,O=C(Cc1ccccc1F)N1CCCCC1c1ccn2ccnc2n1 (centres undefined),-6.86
15,CCCC(Nc1nc(COCC)nc2c1CCNCC2)c1nccn1C (centres undefined),2.1
16,CC(C)n1ncc2c1NC(=O)CSC2C(F)(F)F (centres undefined),-21
17,Cc1ccc(CN2CCC(c3cnccn3)CC2)s1,-3.44
18,O=C(CCc1ccccn1)NC1CCN(c2cccc(Cl)c2)C1 (centres undefined),39.6
19,CCOCC1CC2(CCN(C(=O)c3ccc4ccccc4n3)CC2)CO1 (centres undefined),-13.3
20,Cc1ncsc1C(=O)N(C)Cc1ccc(Br)o1,20.1
21,Cc1csc(N2CCN(CC(=O)Nc3cccnc3)CC2C)n1 (centres undefined),2.59
22,Cc1cccc(=O)n1CCC(=O)N1CC[C@@](O)(C2CCC2)[C@H](C)C1,-9.83
23,Cc1cc2nc(SCC(=O)N3CCCC3)n(Cc3ccco3)c(O)c-2n1,-8.29

row,Structure (SMILES),cytotoxicity at 70.5 h [%]
1,Cc1cc(C2CCCN(C(=O)COc3ccccc3F)C2)n[nH]1 (centres undefined),12.5
2,CCOCC1CN(C(=O)c2ccncn2)Cc2cnn(C)c21 (centres undefined),-3.18
3,Cn1nc(CN2CCCC2)c2c1CN(c1cnccn1)CC2,-3.39
4,c1cncc(OC[C@@H]2CCC[C@@]23CNCCO3)c1,14.3
5,CCn1nnc2c1C(COC)CN(Cc1cccs1)C2 (centres undefined),1.81
6,CS(=O)(=O)N1CC(c2nc[nH]n2)c2cc(C(=O)NC3CC3)ccc21 (centres undefined),-3.52
7,CCCn1nccc1C(=O)N1CCCC(C(=O)CCc2ccccc2)C1 (centres undefined),-2.61
8,OCCn1cc(CN2CCN(CCOCC(F)(F)F)CC2)cn1,6.14
9,Cc1cccc(N2CCC(N3CCCC4(CN(C)C(=O)O4)C3)CC2)c1C (centres undefined),-9.98
10,Cc1cccc(C(C(=O)N2CC(c3cccnc3)C2)N(C)C)c1 (centres undefined),-0.966
11,O=C(O)c1cc2c(nc1O)CC(c1cccs1)CC2=O (centres undefined),-3.98
12,CCCc1ccc(S(=O)(=O)NC(=O)CCC2CCCO2)cc1 (centres undefined),3.11
13,Cc1nc(C2CCN(S(C)(=O)=O)CC2)nc(N2CCCC2)c1C,-3.13
14,Cn1nccc1CNC(=O)C1CCCCC1,-2.81
15,CC(NC(=O)N(C)Cc1ccsc1)c1ccc2c(c1)CCC(=O)N2 (centres undefined),-3.94
16,COCCOCC(=O)N1C[C@@H]2CC[C@H](Oc3ccccc3F)[C@@H]2C1,12.1
17,Cc1cc(NC(=O)NCC2CCOC2)no1 (centres undefined),-11.6
18,Cc1cccc(CN2C[C@@H]3CN(C(=O)[C@H]4CCCO4)C[C@@H]3C2=O)c1,-5.16
19,C/C=C(\C)CN1CCC2(CCC(=O)N2OCc2ccccc2F)CC1,-7.98
20,O=S1(=O)CCN(CCCc2ccc(Cl)cc2)CC1,-6.76
21,CCc1cnc(N2C[C@H]3C[C@H](C(=O)NC)[C@@H](C2)O3)nc1,-1.27
22,Cc1cc(F)ccc1N1CCCC(Nc2nccn3cnnc23)C1=O (centres undefined),-2.63
23,Cc1nc(C(C)(C)NCc2ncc(C3CC3)o2)sc1C,2.05

row,Structure (SMILES),cytotoxicity at 70.5 h [%]
1,CC(NC(=O)NCCCn1cncn1)c1ccc(F)cc1 (centres undefined),-4.64
2,COc1ccc(-n2ccc(C(=O)NCCN3CCCCCC3)n2)cc1,-2.62
3,CNC(=O)CC1CC2(CCNCC2)c2cc(F)ccc21 (centres undefined),-3.61
4,CN(C)Cc1ccnc(C2CCCN2Cc2ccncc2)n1 (centres undefined),18.5
5,CCS(=O)(=O)N1CC[C@@H]2[C@H](CC1)N(CC(C)C)CCS2(=O)=O,-1.74
6,O=C(NC1CC1)C1CCN(c2snc3ccccc23)CC1,15.8
7,Cc1nnsc1C(=O)NCc1cccnc1N1CCc2ccccc2C1,16.7
8,CCc1nnc2n1CCN(CC(=O)Nc1cc(C(C)(C)C)nn1C)C2,0.0813
9,Cc1occc1CNC(=O)C1(C)CCCN1C(=O)c1ccccc1 (centres undefined),2.74
10,Fc1cccc(CN2CCC3(CCCN3c3ncccn3)CC2)c1,5.31
11,CCc1c(C)[nH]c(C2(N)CCCC2)nc1=O,-2.07
12,COc1ccccc1CCNC(=O)N(C)C(C)CS(C)(=O)=O (centres undefined),24.3
13,CCc1cnc(C)nc1N1CCN(C(N)=O)CC1,-12.6
14,O=C1CC[C@H]2[C@H](CCN2c2ncc(F)cn2)N1c1ccccc1,-5.86
15,COc1ccc(C(C)NS(=O)(=O)c2ccc3c(c2)CCC(=O)N3)cc1F (centres undefined),12.7
16,CC(C)(C)CN1CCC(c2nccnc2Nc2cnccn2)CC1,-1.64
17,O=C(NC(C(=O)Nc1cc[nH]n1)c1ccccc1)C1CCC1 (centres undefined),-0.966
18,COc1ccc(NCCC(=O)NCc2cccnc2N(C)C)cc1,-8.23
19,COc1ccc(C2CC(=O)NCc3nc4ccccn4c32)cn1 (centres undefined),-1.02
20,CN(Cc1nncn1-c1cccc(C(F)(F)F)c1)S(C)(=O)=O,7.25
21,CC(NS(C)(=O)=O)C(=O)N(C)Cc1csc(-c2ccccc2)n1 (centres undefined),-13.9
22,COc1ccc(CN(C)C(=O)c2nnc(CN(C)C)o2)cc1,-3.32
23,COc1c(C)cnc(CN2CCCC2Cn2nc(C)nc2C)c1C (centres undefined),-3.93

row,Structure (SMILES),cytotoxicity at 70.5 h [%]
1,Cc1ccc2nc(CN(C)Cc3[nH]nc4c3CCC4)[nH]c2c1C,6.49
2,Cc1ccc(OCC2CCCN(C(=O)CN3CCOCC3)C2)cc1 (centres undefined),2.89
3,COc1c(Br)c(CC2CC(CO)=NO2)c(OC)c2c1OCO2 (centres undefined),-9.88
4,O=C(c1ccc2occc2c1)N1CCC(C(=O)O)(n2cccn2)CC1,-4.27
5,O=C(c1ccco1)N1CC(S(=O)(=O)c2ccc(Cl)cc2)C1,-10.1
6,Cc1ccc(Cn2cc(C)c(N)n2)cc1,22.1
7,COC(=O)[C@@H](NC(=O)c1coc(COc2cccc(F)c2F)n1)C(C)C,-11.7
8,CCOC(=O)N1CCN(C(=O)C2Cc3ccccc3CN2C)CC1 (centres undefined),2.75
9,Cc1nnc2n1CCN(C(=O)c1cc(Br)c[nH]1)C2,-5.46
10,Cc1nccn1CCN(C)c1nc(-c2ccc(Cl)cc2)nc2c1CNC2,-3.99
11,c1ccc(NC[C@@H]2CCC[C@@H]3CN(Cc4cccnc4)C[C@@H]32)nc1,-5.9
12,CNC(=O)c1nnc2ccc(N3CCOCC3)cc2n1,-4.03
13,CSCc1ccc(N2CCC(C(O)CC(C)C)CC2)nc1 (centres undefined),6.44
14,CN1CCN(C(=O)C2CCCc3[nH]ncc32)CC1 (centres undefined),-1.9
15,CCc1nnc(SC2CCCN(c3cnn(C)c3)C2=O)n1C (centres undefined),-12.6
16,Cc1nccc(C2CCCCN2Cc2cccc(F)c2)n1 (centres undefined),-12.9
17,CC(C)Cc1cc(C(=O)NCC(O)c2ccc(F)cc2)n(C)n1 (centres undefined),-16.2
18,Cc1cnn(CC2CCCN2C(=O)c2csc(C(C)C)n2)c1 (centres undefined),17.5
19,CC(C)CS(=O)(=O)CCNc1ncccn1,-4.65
20,CSc1ncccc1C(=O)N1CCC2(CC1)c1nc[nH]c1CCN2C,7.45
21,Cc1cccc(Oc2nccnc2C2CCN(C(=O)C(C)(C)N)CC2)c1,-4.07
22,COc1ccc(Oc2nccc3occc23)cc1CN1CCCC1,-6.39
23,CN(C)CCN1CCCC12CCN(C(=O)c1cccnc1)CC2,-3.11

row,Structure (SMILES),cytotoxicity at 70.5 h [%]
1,CC(=O)NCC[C@H]1CC(C)(C)Oc2ccccc21,-4.17
2,Cc1cc2cccc(NC(=O)N3CC[C@@H]4CC[C@H](C3)N4C)c2o1,-5.41
3,CCc1nccn1CCC(=O)N1CC(=O)N(c2ccccc2C)CC1C (centres undefined),-7.9
4,COCCN(Cc1ccc(F)cc1Cl)C(=O)c1cc[n+]([O-])cc1,17.1
5,Cc1nc(C)c(CNC(=O)NC(c2nnc3n2CCC3)C(C)C)s1 (centres undefined),-1.59
6,Cn1nc(CN2CCCCC2)c2c1CN(C(=O)c1ccccc1)C2,23.3
7,COCC(=O)N1C[C@@H]2CCCO[C@@H]2[C@H](N(C)Cc2ccco2)C1,-3.25
8,CCC(=O)N1CCCC1C(=O)N1CCC(Cc2ccc(F)cc2)CC1 (centres undefined),-9.21
9,Cc1csc(N2CCN(CCCN3CCCC3=O)CC2)n1,-0.2
10,Cc1c(C(=O)N2CC(=O)N(C)C2)nnn1-c1cccc2cccnc12,-3.09
11,Cc1c(Cl)cccc1NCc1nc2n(n1)CCCCC2,-7.61
12,COCCNc1nc(C)nc2c1CCN(C[C@H]1CC[C@@H](N)CC1)CC2,44.2
13,CCOCCCNC(=O)C1(C)CCC(=O)N1c1ccccc1F (centres undefined),-3.95
14,CSc1ccc(NC(=O)Cn2cc(NC(C)=O)cn2)cc1,-7.71
15,Cc1ncc2c(n1)CCCC2NC(=O)c1ccncc1 (centres undefined),14.6
16,COc1ccc(NC(=O)c2cnc(N(C)C3CCCCC3)nc2N)cc1,2.82
17,CC(C)c1n[nH]c(C(=O)NC(C)c2ccncc2)c1Br (centres undefined),-2.63
18,CSCCC(=O)N1CCC(c2nnc(CN(C)CCO)n2C)CC1,-2.23
19,CCS(=O)(=O)c1ccc2oc([C@H]3CCN(Cc4ccncc4)C3)nc2c1,6.63
20,O=C(O)CCc1ccc(S(=O)(=O)Nc2cnn(CC3CC3)c2)cc1,27.6
21,CC(O)CNC(=O)c1nc(Cc2c(Cl)cccc2Cl)no1 (centres undefined),-4.9
22,CCN1C(=O)CCCC12CCCN(C(=O)c1cnccn1)C2 (centres undefined),-5.91
